The source of these data is patent publication US5114851A, “Light activated acyl-enzymes” (Duke University, priority 1989, dated 1992).

A short description of data set [1]: Photolysis of model compounds and cyclization of the cis photoisomer to the coumarin (conventional spectroscopy or flash photolysis). The format is physicochemical. The source says: Preliminary to our studies of the enzyme system, we studied the photochemistry of the model compounds Ethyl-(E)-2-methoxy-4-diethylamino-α-methylcinnamate and Ethyl-(E)-2-hydroxy-4-diethylamino-α-methylcinnamate (hereinafter "DEA acyl", as this compound models DEA acyl-thrombin with ethyl in place of thrombin). Photolysis of Ethyl-(E)-2-methoxy-4-diethylamino-α-methylcinnamate with 366 nm light results in a rapid decrease in absorbance as the cis photoisomer is formed (In all photolyses reported here, except for the laser flash studies, the source lamp was a mercury 500 W high pressure lamp. The 366 nm emission was isolated by a Bausch and Lomb grating monochromator). At the photostationary state, the cis photoisomer is 60% of the mixture, and the ε of the cis compound is <40% of that of the trans at 360 nm. Photolysis for 5 minutes of DEA acyl in 98% ethanol/2% pH 7.4 Tris buffer gives a sharp decrease in the absorbance at 360 nm, followed by a slow increase in absorbance at 380 nm due to the dark formation of the 3-methyl-7-N,N-diethylamino-coumarin (hereafter "the coumarin"). The increase in the absorbance due to the coumarin is first order with kc =7.17·10^-4 s^-1. The presence of the cis isomer has been confirmed by NMR after photolysis as <0° C. […] Photolysis of trans DEA acyl in Tris buffer alone gives a clean conversion to coumarin with an isosbestic point observed at 370 nm. Thus, in Tris and using conventional spectroscopy, there is no evidence for the formation of cis DEA acyl in the conversion of the trans isomer to coumarin, but flash photolysis experiments (vide infra) indicate that the cis intermediate is formed, but is very reactive in this solvent.
No evidence for a cis acyl enzyme photoisomer is seen by conventional spectroscopy. However, flash photolysis (10 nsec) of DEA acyl or DEA acyl-thrombin in Tris buffer with 355 nm light from a Nd/Yad laser does give evidence for the cis photoisomer. For both DEA acyl and DEA acyl-thrombin, the flash results in an immediate decrease in absorbance at 380 nm, followed by a first order increase of absorbance as the coumarin forms from the cis intermediate.

A further data set has as its system thrombin. Put plainly: Acylation (inactivation) of thrombin monitored by chromogenic assay. In kind it is biochemical. The note with it: 1- to 5-fold excess of compound; thrombin 1.5 μM; pH 7.4 Tris buffer. An excerpt: The reaction of 4-Amidinophenyl-(E)-2-hydroxy-4-diethylamino-α-methylcinnamate hydrocholoride (Compound F) with thrombin to form an acyl-thrombin (hereinafter "DEA acyl-thrombin") was monitored by chromogenic assay. See A. Turner, et al., 110 J.Am.Chem.Soc. 244 (1988); B. Blomback, Theoretical Considerations of Substrate Structures Governing Enzyme Specificity, 3 (M. Scully and V. Kakkar eds 1979)(New York: Churchill Livingston). A 1- to 5-fold excess of 4-Amidinophenyl-(E)-2-hydroxy-4-diethylamino-α-methylcinnamate with thrombin (1.5 μM) in pH 7.4 Tris buffer led to complete loss of thrombin activity in less than 1 hour.

Structures can show the parent of a compound that is named as a salt.

Regarding `CCOC(=O)/C(C)=C\c1ccc(N(CC)CC)cc1O` [cis DEA acyl], the “First Order Rate Constant (cyclization of cis photoisomer to the coumarin)” value in data set [1] (2/98 ethanol/Tris pH 7.4, 23° C., flash photolysis) came to 1.7 ± 0.5 s⁻¹. Moreover, in data set [1] (50/50 ethanol/Tris buffer versus 98% ethanol/2% Tris), the “increase of the rate of cyclization with solvent” value is “two orders of magnitude”. For the same compound, the “Half-Life of cyclization to give the coumarin” value is 0.118 min in data set [1] (50/50 ethanol/Tris pH 7.4, 23° C.) and 16.1 min in data set [1] (98/2 ethanol/Tris pH 7.4, 23° C.).
For `CCN(CC)c1ccc(/C=C(\C)C(=O)Oc2ccc(C(=N)N)cc2)c(O)c1` [Compound F, 2-Propenoic acid, 3-(2-hydroxy-4-diethylaminophenyl)-2-methyl-, 4-(aminoiminomethyl)phenyl ester,(E)-, monohydrochloride salt], in the data set with thrombin, the “loss of thrombin activity” value is listed as “complete loss” and the “time to complete loss of thrombin activity” value was “less than 1 hour”.
Regarding `CCOC(=O)/C(C)=C/c1ccc(N(CC)CC)cc1OC` [Ethyl-(E)-2-methoxy-4-diethylamino-α-methylcinnamate], the “ε of the cis compound relative to that of the trans” value in data set [1] (at 360 nm) is given as less than 40%.
